The numbers were not newly measured in US6844014B1, “Herbal healing lotion for veterinary use” (priority 2002, dated 2005), which cites them from elsewhere.

The conditions of the data set: treatment by previous veterinarian before the office visit.

Structures are written as SMILES.

In the case of `C[C@]12CCC(=O)C=C1CC[C@@H]1[C@@H]2C(=O)C[C@@]2(C)[C@H]1CC[C@]2(O)C(=O)CO` [cortisone], the “result of previous treatment of the lesion” value is reported as “no positive result was obtained”.
